Seven compounds from patent publication US20250230193A1, “CYCLIC COMPOUND HAVING SELECTIVE KRAS INHIBITORY EFFECT ON HRAS AND NRAS” (CHUGAI SEIYAKU KABUSHIKI KAISHA, priority 2022, published 2025) can be followed below.

Where a SMILES comes first, the peptide text is derived from it. Bridges are numbered along the chain shown (N, C = ends). [ ]: non-standard residue; d: D form. The star is where a group is joined. hPhe(3-Cl-4-CF3) = N[C@@H](CCc1ccc(C(F)(F)F)c(Cl)c1)C(=O)O; NPrPhe(4-CF3) = CCCN[C@@H](Cc1ccc(C(F)(F)F)cc1)C(=O)O; NMeGly(cPent) = CN[C@H](C(=O)O)C1CCCC1; Pro(4,4-F2) = O=C(O)[C@@H]1CC(F)(F)CN1; NMeD = CN[C@@H](CC(=O)O)C(=O)O; NMeL = CN[C@@H](CC(C)C)C(=O)O; NMeNva = CCC[C@H](NC)C(=O)O; Morpholide = C1CN(*)CCO1; Ac4c = NC1(C(=O)O)CCC1; NPrGly = CCCNCC(=O)O; Sar = CNCC(=O)O

In experiment [1] the target is GDP-bound NRAS wild-type protein (Homo sapiens, UniProt P01111). Briefly: Binding to NRAS by surface plasmon resonance (SPR), Single Cycle Kinetics.
Experiment [2] addresses GDP-bound HRAS wild-type protein (Homo sapiens, UniProt P01112). Briefly: Binding to HRAS by surface plasmon resonance (SPR), Single Cycle Kinetics.
Where [3] appears, read: KD ratio NRAS/KRAS, class symbols.
Where [4] appears, read: KD ratio HRAS/KRAS, class symbols.

Chain of GDP-bound HRAS wild-type protein (P01112 whole entry): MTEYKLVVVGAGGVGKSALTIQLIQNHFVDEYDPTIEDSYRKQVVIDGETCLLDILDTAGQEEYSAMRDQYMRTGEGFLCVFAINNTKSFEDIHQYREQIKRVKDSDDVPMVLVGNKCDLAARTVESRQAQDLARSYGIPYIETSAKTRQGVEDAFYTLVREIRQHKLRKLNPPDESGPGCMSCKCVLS
Chain of GDP-bound NRAS wild-type protein (P01111 whole entry): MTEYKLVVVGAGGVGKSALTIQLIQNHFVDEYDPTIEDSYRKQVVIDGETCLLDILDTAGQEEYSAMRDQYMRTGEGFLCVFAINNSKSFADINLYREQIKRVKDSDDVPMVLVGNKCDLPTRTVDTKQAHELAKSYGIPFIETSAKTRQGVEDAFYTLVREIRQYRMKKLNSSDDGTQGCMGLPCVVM

In the case of `CCO[C@@H]1C[C@H]2C(=O)NC3(CCC3)C(=O)N(C)[C@@H](C3CCCC3)C(=O)N(C)[C@H](C(=O)N(CC)CC)CC(=O)N(C)[C@@H](CC)C(=O)N[C@@H]([C@@H](C)CC)C(=O)N(C)CC(=O)N(C)[C@H]3C/C=C\CCN(C3=O)[C@@H](Cc3ccc(C(F)(F)F)cc3)C(=O)N(C)CC(=O)N[C@@H](CCc3cc(F)c(C(F)(F)F)c(F)c3)C(=O)N2C1` [PP1305], in experiment [1] (SPR, KD ratio class), the “NRAS/KRAS (ratio of KD value for GDP-bound NRAS wild-type protein to KD value for KRAS)” value is given as “AA (a compound having 20 or more is denoted as AA)”. In addition, the “HRAS/KRAS (ratio of KD value for GDP-bound HRAS wild-type protein to KD value for KRAS)” value in experiment [2] (SPR, KD ratio class) is “A (a compound having 10 or more and less than 20 is denoted as A)”.

In the case of `CCO[C@@H]1C[C@H]2C(=O)NC3(CC(C)(C)C3)C(=O)N(C)[C@@H](C3CCCC3)C(=O)N(C)[C@H](C(=O)N(C)CC)CC(=O)N(C)[C@@H](CC(C)C)C(=O)N[C@@H]([C@@H](C)CC)C(=O)N(C)CC(=O)N(C)[C@H]3C/C=C\CCN(C3=O)[C@@H](Cc3ccc(C(F)F)cc3)C(=O)N(C)CC(=O)N[C@@H](CCc3ccc(Cl)c(Cl)c3)C(=O)N2C1` [PP2827], the “NRAS/KRAS (ratio of KD value with respect to GDP-bound NRAS wild-type protein to KD value with respect to KRAS)” value in experiment [1] (setting [3]) was “A (a compound having 10 or more and less than 20 is denoted as A)”. Further, the “HRAS/KRAS (ratio of KD value with respect to GDP-bound HRAS wild-type protein to KD value with respect to KRAS)” value in experiment [2] (setting [4]) is “B (a compound having 3 or more and less than 10 is denoted as B)”.

As for `CCC[C@H]1C(=O)N[C@@H]([C@@H](C)CC)C(=O)N(CCC)CC(=O)N(C)CC(=O)N(CCC)[C@@H](Cc2ccc(C(F)(F)F)cc2)C(=O)N(C)CC(=O)N[C@@H](CCc2ccc(C(F)(F)F)c(Cl)c2)C(=O)N2CCC[C@H]2C(=O)NC2(CCC2)C(=O)N(C)[C@@H](C2CCCC2)C(=O)N(C)[C@H](C(=O)N2CCOCC2)CC(=O)N1C` [PP1947] ([NMeNva]I[NPrGly][Sar][NPrPhe(4-CF3)][Sar][hPhe(3-Cl-4-CF3)]P[Ac4c][NMeGly(cPent)][NMeD]-Morpholide; lactam N-11), the “NRAS/KRAS (ratio of KD value for NRAS to KD value for KRAS)” value in experiment [1] (KD ratio, GDP-bound NRAS wild-type vs GDP-bound KRAS wild-type, SPR) is “B (a compound having 3 or more and less than 10 is denoted as B)”. For the same compound, the “HRAS/KRAS (ratio of KD value for HRAS to KD value for KRAS)” value in experiment [2] (KD ratio, GDP-bound HRAS wild-type vs GDP-bound KRAS wild-type, SPR) was “B (a compound having 3 or more and less than 10 is denoted as B)”.

Regarding `CCC[C@H]1C(=O)N[C@@H](CC(C)C)C(=O)N(CCOC)CC(=O)N(C)[C@H]2C/C=C\CCN(C2=O)[C@@H](Cc2ccc(C)cc2)C(=O)N(C)CC(=O)N[C@@H](CCc2ccc(C(F)(F)F)c(OC)c2)C(=O)N2C[C@H](OCC)C[C@H]2C(=O)NC2(CC(C)(C)C2)C(=O)N(C)[C@@H](C2CCCC2)C(=O)N(C)[C@H](C(=O)N(C)C)CC(=O)N1C` [PP2522], the “NRAS/KRAS (ratio of KD value with respect to GDP-bound NRAS wild-type protein to KD value with respect to KRAS)” value in experiment [1] (setting [3]) was “B (a compound having 3 or more and less than 10 is denoted as B)”. Also, the “HRAS/KRAS (ratio of KD value with respect to GDP-bound HRAS wild-type protein to KD value with respect to KRAS)” value in experiment [2] (setting [4]) was “B (a compound having 3 or more and less than 10 is denoted as B)”.

For the compound `CCCN1C(=O)CN(C)C(=O)CNC(=O)[C@H]([C@@H](C)CC)NC(=O)[C@H](CC(C)C)N(C)C(=O)C[C@@H](C(=O)N2CCOCC2)N(C)C(=O)[C@H](C2CCCC2)N(C)C(=O)C2(CCC2)NC(=O)[C@@H]2CC(F)(F)CN2C(=O)[C@H](CCc2ccc(C(F)(F)F)c(Cl)c2)NC(=O)CN(C)C(=O)[C@@H]1Cc1ccc(C(F)(F)F)cc1` [PP0395] ([NMeL]IG[Sar][NPrPhe(4-CF3)][Sar][hPhe(3-Cl-4-CF3)][Pro(4,4-F2)][Ac4c][NMeGly(cPent)][NMeD]-Morpholide; lactam N-11), the “NRAS/KRAS (ratio of KD for GDP-bound NRAS wild-type to KD for KRAS)” value in experiment [1] (KD ratio NRAS/KRAS, SPR) is “B (a compound having 3 or more and less than 10 is denoted as B)”. For the same compound, the “HRAS/KRAS (ratio of KD for GDP-bound HRAS wild-type to KD for KRAS)” value in experiment [2] (KD ratio HRAS/KRAS, SPR) is “C (A compound having a KD ratio of 0.1 or more and less than 3 is denoted as C)”.

In the case of `CC[C@H](C)[C@@H]1NC(=O)[C@H](CC(C)C)N(C)C(=O)C[C@@H](C(=O)N2CCOCC2)N(C)C(=O)[C@H](C2CCCC2)N(C)C(=O)C2(CCC2)NC(=O)[C@@H]2CCCN2C(=O)[C@H](CCc2cc(F)c(C(F)(F)F)c(F)c2)NC(=O)CN(C)C(=O)[C@H](Cc2ccc(C(F)(F)F)cc2)N2CCCCC[C@@H](C2=O)N(C)C(=O)CN(C)C1=O` [PP0497], the “NRAS/KRAS (ratio of KD value with respect to GDP-bound NRAS wild-type protein to KD value with respect to KRAS)” value in experiment [1] (KD ratio NRAS/KRAS, SPR) was “B (a compound having 3 or more and less than 10 is denoted as B)”. In addition, the “HRAS/KRAS (ratio of KD value with respect to GDP-bound HRAS wild-type protein to KD value with respect to KRAS)” value in experiment [2] (KD ratio HRAS/KRAS, SPR) was “B (a compound having 3 or more and less than 10 is denoted as B)”.

Turning to `CCO[C@@H]1C[C@H]2C(=O)NC3(CC(C)(C)C3)C(=O)N(C)[C@@H](C(CC)CC)C(=O)N(C)[C@H](C(=O)N(C)C)CC(=O)N(C)[C@@H](C(C)C)C(=O)N[C@@H]([C@@H](C)CC)C(=O)N(C)CC(=O)N(C)[C@H]3C/C=C\CCN(C3=O)[C@@H](Cc3ccc(C(F)(F)F)cc3)C(=O)N(C)CC(=O)N[C@@H](CCc3cc(F)c(C(F)(F)F)c(F)c3)C(=O)N2C1` [PP2135], in experiment [1] (SPR, GDP-bound NRAS wild-type vs GDP-bound KRAS wild-type), the “NRAS/KRAS (ratio of KD value with respect to NRAS to KD value with respect to KRAS)” value is reported as “AA (a compound having 20 or more is denoted as AA)”. Also, the “HRAS/KRAS (ratio of KD value with respect to HRAS to KD value with respect to KRAS)” value in experiment [2] (SPR, GDP-bound HRAS wild-type vs GDP-bound KRAS wild-type) is “A (a compound having 10 or more and less than 20 is denoted as A)”.
